# US20080279961A1, “TELOMERE TARGETING AGENTS AS STEM CELLS DIRECTED TREATMENTS” (priority 2007, published 2008)
# Entries after “also recorded” stand apart in the source; their conditions may differ.
# Assays:
# HEK293T = assay: cytokine secretion into clonogenic assay supernatant (ELISA); format: cell-based, human; settings: HEK293T normal stem cell culture supernatant
# Description: (§1) For the monkey bone marrow and the human cord blood, methylcellulose from StemCell Technologies (Vancouver) was used to grow the stem cells as colonies. […] Cancer tissues are composed of various cell types, tumor cells, stromal fibroblasts, blood vessels, inflammatory cells, and adipocytes, all of which can carry over into single cell suspensions that are seeded into soft agar after tissue digestion. To examine whether tumor stem cells secrete cytokines that support their growth of enforce differentiation, the expression of 6 cytokines found in the supernatant of clonogenic assays was evaluated. Ultrasensitive immunoassay procedures based on the ELISA (enzyme linked immuno absorbent assay) technology were employed for the measurement of VEGF, TNF-alpha, GMCSF, GCSF IL4 and IL6. The assays were performed by the Cytokine Laboratory in the VA Hospital at the University of Maryland Baltimore and data provided as optical density readouts that were converted relative to a standard into pg/ml absolute cytokine values. The IL4 and 6 measurements were all negative; however VEGF, TNF-alpha, GMCSF and GCSF yielded interesting and differential results between tumor and normal stem cells. While cytokine levels decreased after RHPS4 treatment in tumor stem cell assays, they increased in normal stem cell cultures.
# MCF-7 = assay: as above; format: cell-based, human; settings: MCF-7 tumor stem cell assay supernatant
# Description: as §1
# gamma-H2AX = gamma-H2AX immunoblotting and immunofluorescence; format: cell-based, human; settings: UXF1138L cells, 1 μM, Western blot
# Description: During phosphorylated H2AX (gamma-H2AX) and hTERT immunofluorescence staining, approximately 75,000 UXF1138L cells/chamber were seeded onto 8 chamber glass slides (Costar) 24 hrs prior to RHPS4 treatment. After exposure to 1 μM RHPS4 for 1, 6, or 24 hours, cells were washed twice with PBS and air dried. Cells were fixed and permeabilized by immersion into ice-cold methanol/acetone (1:1; 3×1 min). Slides were blocked overnight at 4° C. with 5% BSA in PBS and washed with PBS (3×) before incubation (2 hrs) with anti-gamma-H2AX mouse monoclonal antibody (Upstate, Waltham, Mass.; 1:250 in PBS) or hTERT monoclonal antibody (NCL-L-hTERT Novacastra, Newcastle, UK; 1:40) respectively. Control cells were probed with mouse IgG (Santa Cruz Biotechnolog Inc., Santa Cruz, Calif.). Slides were washed 3× with PBS, before incubation with a goat anti-mouse FITC conjugated secondary antibody (Sigma; 1:100, 3 h). Following further PBS washes (3×), slides were incubated with 1:5000 DAPI (2 mg/ml; Sigma), washed 3× in PBS and mounted with Vectashield mounting media. Images were visualized as described above.
# During immunoblotting for gamma-H2AX, cells were grown to 50 to 80% confluent in 6-well plates (Falcon) and treated with 1 μM RHPS4 for 1, 6, and 24 hours. […] Histones were dissolved in water and protein concentration was determined using the BioRad protein assay (BioRad Laboratories, Hercules Calif.). […]
# [1] = tested on: normal monkey bone marrow stem cells; assay: methylcellulose colony growth of bone marrow stem cells; format: cell-based; settings: low drug concentrations
# Description: as §1
# [2] = tested on: telomeres of UXF1138L xenografts; assay: telomere restriction fragment (TRF) length by Southern blot in primary cultures from xenografts; format: in vivo, xenograft
# Description: Upon termination of the experiment, which was when tumors reached a volume of 1.5 cm in diameter (day 28), RHPS4 treated tumor tissue and control tumors were excised, minced and digested using a mixture of collagenase (123 U/ml), DNase (375 U/ml), and hyaluronidase (290 U/ml) in RPMI 1640 medium at 37° C. for 3 hrs. All enzymes were purchased from Roche, Indianapolis Ind.). Primary cultures as well as clonogenic growth assays were prepared from the resulting single cell suspensions. Primary cultures were used for analysis of telomere length. In addition, RHPS4 treated tumors (5 mg/kg/d) and control were propagated into new animals for up to three times. The control mouse group was always derived from untreated tumor fragments, but from the same initial passage as were the RHPS4 treated tumors (FIG. 1B).
# To measure TRF (Telomere Restriction Fragment)-length, genomic DNA was isolated from 3-7 day primary cultures established from single cell suspensions of control and treated UXF1138L xenograft tissues using the DNeasy Tissue Kit (Qiagen, Hilden, Germany). Southern blotting was performed with the Telo-TAGGG-telomere length kit from Roche (Penzberg, Germany) and analyzed as described before (Burger et al., 2005; Cookson et al., 2005).
# UXF1138L tumors = assay: atypical mitoses counted in xenograft sections; format: in vivo, nude mice
# Description: Upon termination of the experiments, tumors from 3 mice per group were excised and immediately fixed in 10% PBS buffered formalin for 24 hours followed by routine paraffin embedding procedures (Burger et al. 2005).
# Five-micrometer paraffin sections were cut, dewaxed, and antigen retrieval done in citrate buffer (pH 6.0) in the microwave for 30 minutes. Sections were then treated with methanol/3% hydrogen peroxide to remove endogenous peroxidase and blocked with 10% normal goat serum in PBS and stained. PBS was used as washing buffer. Cells were incubated overnight at 4° C. with a monoclonal anti-hTERT antibody (class IgG2a, kappa, Novacastra, Newcastle, UK) diluted 1:40 in PBS. Mouse immunoglobulin G2a isotype control (Santa Cruz) was used as negative control. hTERT-specific immunoperoxidase staining was developed using the DAKO Envision+ system (Envision 3,3V-diaminobenzidine Plus kit mouse, DAKO Cytomation). […] Sections were viewed and evaluated by two independent pathologists. Mean numbers of atypical mitoses were counted in control and treated tissues from 3 tumors (4 fields of 250 cells per tumor) for the 3 groups (Burger et al. 2005). Box plots were generated using SigmaPlot version 10 software and statistical significance between treatments calculated in SigmaPlot using the Student T-test.
structure (smiles),measurement,setting,value
"COS(=O)(=O)[O-].Cc1cc2c3c([n+](C)c4ccc(F)cc4c3c1)-c1cc(F)ccc1N2C [RHPS4, 3,11-difluoro-6,8,13-trimethyl-8H-quino[4,3,2-kl]acridinium methosulfate]",secretion of stem cell associated cytokines,HEK293T,"increased; also recorded: induction in cytokine secretion, particularly VEGF"
same,secretion of stem cell associated cytokines,MCF-7,"decreased; also recorded: inhibition of tumor necrosis factor alpha, VEGF, GMCSF and GCSF"
same,time at which gamma-H2AX expression was seen,gamma-H2AX,1 h
same,growth of normal monkey bone marrow stem cells,[1],induces the growth
same,TRF [kb],[2]; Passage #1,5.1 kb
same,TRF [kb],[2]; Passage #2,~4.7 kb
same,TRF [kb],[2]; Passage #3,~3.4 kb
same,TRF [kb],[2]; Passage #4,4.2 kb
same,rate of TRF-length shortening,[2]; passage ~28 days,approximately 1 kb per passage
same,mitotic abnormalities compared to vehicle control,UXF1138L tumors; 5 mg/kg/d p.o.,significant induction of mitotic abnormalities; also recorded: increase in mitotic abnormalities
same,"atypical mitosis, mean number","UXF1138L tumors; UXF1138L tumors passage 4, control 0.35",1.25±0.19
